Key:
NF-κB = NF-κB luciferase reporter (p3×κBluc), transient transfection of K562 cells; format: cell-based, human
Excerpt: (§1) Plasmids—The pBabe-NIC-1 (pNIC-1) expression vector encoding constitutively active Notch-1 (NIC-1) was described previously (36,37,51). This vector was derived from the pBabe-puro retroviral vector and includes a cDNA sequence encoding amino acids 1759-2556 of human Notch-1 with a Myc tag fused to its carboxyl terminus. Human NIC-1 deletion mutants were generated by PCR using a full-length human Notch-1 expression vector as the template. The Notch-dependent reporter plasmid containing four CBF1 binding sites and an simian virus 40 promoter fused to luciferase (p4×CBF1luc) was described previously (52). The AP-1 reporter plasmid (p1×AP1luc) containing a collagenase promoter fragment (−73/+67) with a single AP-1 binding site in the luciferase reporter vector pGL2-basic (Promega) was described previously (53). The NF-κB reporter plasmid (p3×κBluc) containing three NF-κB binding sites and a minimal promoter fused to luciferase was a kind gift of Dr. Shigeki Miyamoto (University of Wisconsin Medical School). […]
(§2) For each transfection, cells were incubated for 26 h after transfection and then treated with TPA (final concentration: 5 nM) or the vehicle (DMSO). […] Luciferase activity was normalized by the protein content of the lysates, determined by Bradford assay using γ-globulin as a standard.

AP-1 [1] = assay: AP-1 luciferase reporter, transient transfection of K562 cells; format: cell-based, human; conditions: K562, p1×AP1luc, no NIC-1
Excerpt: Plasmids—The pBabe-NIC-1 (pNIC-1) expression vector encoding constitutively active Notch-1 (NIC-1) was described previously (36,37,51). This vector was derived from the pBabe-puro retroviral vector and includes a cDNA sequence encoding amino acids 1759-2556 of human Notch-1 with a Myc tag fused to its carboxyl terminus. Human NIC-1 deletion mutants were generated by PCR using a full-length human Notch-1 expression vector as the template. The Notch-dependent reporter plasmid containing four CBF1 binding sites and an simian virus 40 promoter fused to luciferase (p4×CBF1luc) was described previously (52). The AP-1 reporter plasmid (p1×AP1luc) containing a collagenase promoter fragment (−73/+67) with a single AP-1 binding site in the luciferase reporter vector pGL2-basic (Promega) was described previously (53). The NF-κB reporter plasmid (p3×κBluc) containing three NF-κB binding sites and a minimal promoter fused to luciferase was a kind gift of Dr. Shigeki Miyamoto (University of Wisconsin Medical School). The pBabe-H-Ras(12V) expression vector encoding constitutively active H-Ras was a kind gift of Dr. Charming Der (University of North Carolina-Chapel Hill). This vector was derived from the pBabe-puro retroviral vector and includes a cDNA encoding H-Ras with a Gly to Val mutation at amino acid 12.
(§3) Transient Transfections—K562 cells (5×10^5) were collected by centrifugation at 240×g for 8 min at 4° C. and resuspended in 4 ml of complete IMEM. Plasmid DNAs (1 μg of reporter and 2 μg of effector) were added to 150 μl of IMEM, incubated with Superfect (4 μl/1 μg DNA; Qiagen) for 10 min at room temperature and then added to cells.
(§4) For each transfection, cells were incubated for 26 h after transfection and then treated with TPA (final concentration: 5 nM) or the vehicle (DMSO). After incubating for another 12 or 16 h, cells were harvested and assayed for luciferase activity. Luciferase activity was normalized by the protein content of the lysates, determined by Bradford assay using γ-globulin as a standard.

IL-8 = assay: Northern blotting of IL-8 transcripts in K562-Babe and K562-NIC-1 cells; format: cell-based, human; conditions: K562-Babe cells, 5 nM TPA 12 h
Protocol: (§5) Stable Transfection—K562 cells were stably transfected by electroporation with a Bio-Rad Gene pulser electroporator. Cells (5×10^6) were washed with ice-cold PBS, resuspended in 0.5 ml of ice-cold PBS, mixed with 5 μg linearized plasmid DNA, and subjected to electroporation (960 microfarad; 220 V) in a 0.4 cm-wide electroporation cuvette (BTX). pBabe and pNIC-1 were linearized with NotI. Cells were then added to 20 ml of complete IMEM, grown for 48 h, and diluted in complete IMEM containing 1.5 μg/ml puromycin (pools of K562-Babe and K562-NIC-1 cells). Stably transfected cells were analyzed for erythroid differentiation as soon as the pools were generated by benzidine staining to reduce the probability of phenotypic changes that may result from prolonged growth.
(§6) Northern Blotting—Total RNA from K562-Babe and K562-NIC-1 cells was extracted with Triazol (Life Technologies, Inc.). Ten μg of RNA per sample was electrophoresed on a 1% agarose, 6.6% formaldehyde gel and then transferred overnight to a Magnacharge nylon membrane (Osmonics). RNA was cross-linked to the membrane by UV irradiation. Membranes were prehybridized for 30 min at 60° C. in ExpressHyb hybridization solution (Clontech). […] Radioactivity was quantitated by PhosphorImager analysis with ImageQuant software (Molecular Dynamics).

human Aγ globin promoter = assay: pGL3γLuc reporter, transient transfection of K562 cells; format: cell-based; conditions: K562, TPA treatment
Protocol: as §3, §4

MMP1 = assay: Northern blotting of MMP1 transcripts in K562-Babe and K562-NIC-1 cells; format: cell-based, human; conditions: K562-Babe cells, 5 nM TPA 12 h
Protocol: as §5, §6

AP-1 [2] = assay: EMSA of AP-1 DNA binding activity in nuclear extracts; parameters: species or system human; conditions: K562 cells treated with TPA
Protocol: K562-Babe and K562-NIC-1 cells were harvested by centrifugation for 10 min at 150×g. Cells were washed once with ice-cold PBS and resuspended in 1.5 volumes of nuclei lysis buffer (10 mM Tris-HCl, pH 7.5, 10 mM NaCl, 3 mM MgCl2, and 0.2% Nonidet P-40) on ice for 3 min. Nuclei were collected by centrifugation for 5 min at 600×g. Nuclei were washed by gentle resuspension in 1.5 volumes of nuclei wash buffer (10 mM Tris-HCl, pH 7.5, 10 mM NaCl, and 3 mM MgCl2) and then collected by centrifugation for 4 min at 600×g. […] Nuclei were extracted for 45 min at 4° C. with constant mixing. The suspension was then centrifuged for 30 min at 150,000×g. Aliquots of the supernatant were frozen on dry ice and stored at -80° C. The protein concentration as measured by the Bradford assay, with y-globulin as a standard ranged from 4 to 10 mg/ml. DTT (5 mM), phenylmethanesulfonyl fluoride (0.5 mM), leupeptin (20 μg/ml), β-glycerophosphate (800 μM), sodium vanadate (1 mM), and sodium molybdate (50 μM) were included in all buffers. Electrophoretic Mobility Shift Assay-EMSA assays were done as described previously (54). AP-1 DNA binding activity was measured by EMSA with a double-stranded end-labeled oligonucleotide [NT] containing a high affinity AP-1 binding site. […] DNA binding activity was quantitated by PhosphorImager analysis with ImageQuant software (Molecular Dynamics).

AP-1 [3] = assay: AP-1 luciferase reporter, transient transfection of HeLa cells; format: cell-based, human
Excerpt: as §1, §2

CMV enhancer = assay: pCMVβgal β-galactosidase reporter, transient transfection of K562 cells; format: cell-based, human; conditions: K562, TPA treatment
Protocol: as §3, §2

CCCCCCCCCCCCCC(=O)O[C@@H]1[C@@H](C)[C@@]2(O)[C@@H](C=C(CO)C[C@]3(O)C(=O)C(C)=C[C@@H]23)[C@@H]2C(C)(C)[C@]12OC(C)=O [TPA, reference compound]
activation of NF-κB reporter gene by the activator (NF-κB): strongly activated | induction of AP-1 reporter activity by the activator (AP-1 [1]): strongly induced | induction of IL-8 transcript levels (IL-8): strongly induced | increase of pGL3γLuc activity (human Aγ globin promoter): ~3 fold | induction of MMP1 transcript levels (MMP1): strongly induced | induction of AP-1 DNA binding activity (AP-1 [2]): strongly induced | induction of AP-1 reporter activity by the activator (AP-1 [3]): strongly induced | increase of pCMVβgal activity (CMV enhancer): strongly increased
